{
  "source": "patent US20230310390A1",
  "about": "“INHIBITORS OF SHORT-CHAIN DEHYDROGENASE ACTIVITY FOR TREATING NEURODEGENERATION” (CASE WESTERN RESERVE UNIVERSITY, priority 2020, published 2023)",
  "format_in_all_cases": "in vivo",
  "key": {"5×FAD mice": {"tested_on": "5×FAD mice", "experiment": "Blood-brain barrier integrity by transmission electron microscopy", "description": "BBB integrity was analyzed using transmission electron microscopy (TEM) in 6 month old 5×FAD mice. […] Mice were treated with 5 mg/kg/day (+)-SW033291 (or vehicle) every day from 2 to 6 months of age, and then sacrificed for TEM analysis. Individual mouse data points are shown on the graph. Data was analyzed using one-way ANOVA; * p<0.05, ** p<0.01, *** p<0.001. All data is mean±SEM."}, "[1]": {"tested_on": "C57/B6 mice exposed to TBI", "experiment": "Silver staining for axon degeneration after TBI", "details": "3 weeks after TBI, 5 mg/kg twice daily started 24 hours after injury", "description": "8 week old C57/B6 mice were exposed to sham-injury or TBI. Twice daily treatment with 5 mg/kg (+)-SW033291, 5 mg/kg (−)-SW033291, or vehicle was started 24 hours after injury and continued throughout the duration of the experiment. Animals were sacrificed by transcardial perfusion 3 weeks after TBI or sham-injury, and fixed brains were processed for silver staining. […] Individual mouse data points are shown on the graph. Data was analyzed using two-way repeated measures ANOVA; * p<0.05, ** p<0.01. All data is mean±SEM."}, "[2]": {"tested_on": "C57/B6 mice exposed to TBI", "experiment": "Morris water maze after TBI", "details": "for memory / cognitive impairment after TBI (MWM probe): 5 mg/kg twice daily started 24 hours after injury, tested 2 weeks after injury", "description": "(A) Experimental Timeline: 8 week old C57/B6 mice were exposed to sham-injury or TBI. Twice daily treatment with 5 mg/kg (+)-SW033291 or vehicle was started 24 hours after injury and continued throughout the duration of the experiment. Animals were tested for cognitive performance in the Morris water maze (MWM) 2 weeks after injury. (B) Animals were trained to find the hidden platform in the MWM for 4 consecutive days (4 trials/day), with performance measured as latency to find the hidden platform. […] (C, D) To probe for spatial memory of the learned location of the hidden platform, one day after the final learning day the animals were tested in the same MWM except the platform was removed. Memory was measured as latency to first cross the area where the platform was located and the number of times the animal crossed that area. […] Individual mouse data points are shown on the graph. Data was analyzed using two-way repeated measures ANOVA; * p<0.05, ** p<0.01, *** p<0.001. All data is mean±SEM"}, "eicosanoids": {"tested_on": "eicosanoids", "experiment": "Eicosanoid profiling by LC-MS/MS, brain hemispheres of mice after sham or traumatic brain injury (TBI)", "details": "for eicosanoid values in left hemisphere / eicosanoid values in right hemisphere (trends): 5 mk/kg twice daily for 21 days", "description": "Eicosanoids were measured by methods of liquid chromatography with tandem mass spectrometry with the use of spiked in deuterated internal standards. Eicosanoids measured included: the 6-keto-PGF1 alpha (6-keto-PGF1a, a hydrolysis product of and proxy for prostacyclin), thromboxane B2 (TXB2, a metabolite/product of and proxy for thromboxane A2), PGD2, PGE2, 15-keto-PGE2 (produced by 15-PGDH degradation of PGE2), tetranor PGE1 (TN-E, a metabolic product produced by beta-oxidation of PGE2), PGJ2, PGF2 alpha (PGF2a), LTB4, 15-HETE, 12-HETE, 8-HETE, 5-HETE, 17-HDHA, 12,13-DiHOME, 14,15-DHET, 11,12-DHET.\nFIGS. 4-6 illustrate graphs showing comparisons of eicosanoid values in brain of wild-type male mice who at 8 weeks of age were subjected to sham or actual traumatic brain injury (TBI) delivered by blast wave to the left skull. 24 hours following sham or actual TBI treatment commenced by injection twice daily with either 5 mk/kg (+)-SW033291 or with matched vehicle control as described in Zhang et al. Science. 2015; 348(6240):aaa2340. PMCID: PMC4481126. Treatment continued for 21 days until mice reached 11 weeks of age. Three hours following the last injection, mice were sacrificed. After sacrifice the right or left hemisphere of the brain was dissected, flash frozen, and powdered, and eicosanoids were extracted in organic solvent for analysis. Values were normalized to the wet weight of the companion contralateral brain hemispheres and are recorded as ng eicosanoid per gm wet weight of tissue."}, "15-PGDH": {"target": "T1, 15-PGDH (Mus musculus, UniProt Q8VCC1)", "T1 construct": "brain tissue was dissected 3 weeks later for biochemical determination of 15-PGDH enzymatic activity; from tissue; host or cells: mouse brain (forebrain after TBI; whole brain of 5xFAD and WT littermates)", "T1 sequence (Q8VCC1 1-269)": "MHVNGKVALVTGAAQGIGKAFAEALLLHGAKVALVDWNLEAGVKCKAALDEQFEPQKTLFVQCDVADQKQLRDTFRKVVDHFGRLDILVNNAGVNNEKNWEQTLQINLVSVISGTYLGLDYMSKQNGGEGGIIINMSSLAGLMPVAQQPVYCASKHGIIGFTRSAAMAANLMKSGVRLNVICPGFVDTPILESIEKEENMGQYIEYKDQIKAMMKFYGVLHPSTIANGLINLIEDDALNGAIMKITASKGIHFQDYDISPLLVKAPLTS", "experiment": "15-PGDH enzymatic activity in forebrain after TBI", "details": "Hpgd+/+ mice, 3 weeks after TBI, 5 mg/kg started 24 hours after injury", "description": "(A) 8 week old 15-PGDH wild-type (Hpgd^+/+) and 15-PGDH knockout (Hpgd^−/−) mice were subjected to TBI, and brain tissue was dissected 2 weeks later for western blot. […] Individual human data points are shown on the graph. Data was analyzed with Student's t test. * p<0.05. All data is mean±SEM. (C) Hpgd^+/+ mice were subjected to TBI at 8 weeks of age and then brain tissue was dissected 3 weeks later for biochemical determination of 15-PGDH enzymatic activity. […] Individual mouse data points are shown on the graph. Data was analyzed with Student's t test. ** p<0.01, **** p<0.0001. All data is mean±SEM. (D) 5×FAD mice and wild type littermates (WT) were administered either 5 mg/kg/day (+)-SW033291 twice daily (or vehicle) from 2 to 6 months of age, and then brains were dissected for biochemical assessment of 15-PGDH activity. […] Individual mouse data points are shown on the graph. Data was analyzed using two-way repeated measures ANOVA; * p<0.05, ** p<0.01, *** p<0.001. All data is mean±SEM."}, "[3]": {"details": "6 month old 5×FAD mice, 5 mg/kg/day from 2 to 6 months of age, TEM"}, "[4]": {"details": "MWM probe test, TBI mice, 5 mg/kg twice daily"}, "[5]": {"details": "following TBI, compared to vehicle treated mice"}, "[6]": {"details": "sham mice, compared to vehicle treated sham mice"}},
  "note": "“Also recorded” adds a separate entry of the source.",
  "data": [
    {"smiles": "CCCC[S+]([O-])c1sc2nc(-c3cccs3)cc(-c3ccccc3)c2c1N", "note": "(single isomer, unassigned; (+)) [(+)-SW033291]", "values": [
      {"measurement": "blood-brain barrier (BBB) protection", "setting": "5×FAD mice; 5×FAD mice", "value": "protects the blood-brain barrier (BBB) in 5×FAD mice"},
      {"measurement": "disruption of astrocyte end feet that envelope the BBB", "setting": "5×FAD mice; [3]", "value": "prevented this disruption"},
      {"measurement": "enlargement of the perivascular space", "setting": "5×FAD mice; [3]", "value": "prevented this disruption"},
      {"measurement": "silver staining (axon degeneration)", "setting": "[1]; 5 mg/kg", "value": "reduced silver staining equivalent to sham-injury-vehicle"},
      {"measurement": "silver staining (axon degeneration)", "setting": "[1]; listed as (+)-SW033921, 5 mg/kg", "value": "protects wild type mice from axon degeneration after TBI"},
      {"measurement": "average latency to crossing the platform area", "setting": "[2]; [4]", "value": "significantly increased in the vehicle-treated TBI-injured group compared to all other groups"},
      {"measurement": "number of platform crosses", "setting": "[2]; [4]", "value": "significantly decreased in the vehicle-treated TBI-injured group compared to all other groups"},
      {"measurement": "average (escape) latency to find the hidden platform (learning)", "setting": "[2]; TBI and sham-injured mice, 4-day learning period, 5 mg/kg twice daily", "value": "not different between groups"},
      {"measurement": "memory / cognitive impairment after TBI (MWM probe)", "setting": "[2]; TBI mice, 5 mg/kg", "value": "TBI-injured animals treated with vehicle showed memory deficits compared to the (+)-SW033291-treated TBI group"},
      {"measurement": "memory / cognitive impairment after TBI (MWM probe)", "setting": "[2]; TBI mice, listed as (+)-SW033921, 5 mg/kg", "value": "protects wild type mice from cognitive impairment after TBI"},
      {"measurement": "left hemisphere values of PGJ2, TN-E, 15-HETE, and 9,10-DiHOME", "setting": "eicosanoids; TBI treated mice versus sham injury vehicle treated mice", "value": "restoration"},
      {"measurement": "eicosanoid values in left hemisphere", "setting": "eicosanoids; [5]", "value": "significantly increased PGJ2, TN-E, 15-HETE, 8-HETE, 5-HETE, 9,10-DiHOME, and LTB4"},
      {"measurement": "eicosanoid values in right hemisphere (trends)", "setting": "eicosanoids; [5]", "value": "trends toward decreased PGJ2, and TxB2"},
      {"measurement": "eicosanoid values in left hemisphere", "setting": "eicosanoids; [6]", "value": "significantly decreased PGE2, PGF2a, 6-keto-PGF1a, PGD2, PGJ2, TN-E, TxB2, 15-HETE, 12-HETE, 9,10-DiHOME"},
      {"measurement": "eicosanoid values in right hemisphere (trends)", "setting": "eicosanoids; [6]", "value": "a trend toward increased PGE2, 15-keto-PGE2, PGF2a, TN-E, 15-HETE, 12-HETE, 8-HETE, 5-HETE, and LTB4"},
      {"measurement": "15-PGDH enzymatic activity in the forebrain", "setting": "15-PGDH", "value": "restored to normal; also recorded: returned to normal"}
    ]}
  ]
}
